The test system of one assay is VCAM-1. Put plainly: VCAM-1 assay: enzyme immunoassay of TNF-α induced VCAM-1 expression in endothelial cells. Type of assay: cell-based, Human. To be noted: for pIC50: HAEC, TNF-α 1 ng/ml, approximately 16 hours, read-out: VCAM-1 IC50; for IC50: 16 h, read-out: VCAM-1 IC50 (μM). The method, then: The VCAM-1 assay is an enzyme immunoassay to detect tumor necrosis factor alpha (TNF-α) induced Vascular Adhesion Molecule (VCAM-1) expression in endothelial cells.
Human endothelial cells (HAEC) were purchased from Clonetics and maintained in EGM media (Clonetics) supplemented with 5% fetal bovine serum (FBS). In a typical experiment, cells were seeded in 96-well plates. The next day cells were stimulated with TNF-α (1 ng/ml) purchased from Boehringer Mannheim in the presence or absence of compounds dissolved in dimethylsulphoxide (DMSO). To establish a dose curve for each compound, four concentrations in 2 fold increments were used. Cells were exposed to TNF-α and compounds for approximately 16 hours. The next day, cells were examined under microscope to score for visual signs of toxicity.
Media was discarded and the cells were washed once with Hanks buffered saline solution (HBSS)/phosphate buffered solution (PBS) 91:1). Primary mouse monoclonal antibody against VCAM-1 purchased from Southern Biotechnology Associates (0.25 μg/ml in HBSS/PBS+5% FBS) was added and incubated at 37° C. for 30 minutes. Cells were washed with HBSS/PBS three times, and secondary antibody horse radish peroxidase (HRP)-conjugated goat anti-mouse IgG purchased from Southern Biotechnology Associates (1:500 in HBSS/PBS+5% FBS) was added and incubated at 37° C. for 30 minutes. Cells were washed with HBSS/PBS four times and peroxidase substrate 3.3′,5,5′-tetramethyl-benzidine (TMB) was added and incubated in the dark at room temperature until there was adequate blue color development. The length of incubation time was typically 5-15 minutes. 2 N sulfuric acid was added to stop the color development and the data was collected by reading the absorbance at O.D. 450 nm. The result was expressed as the percentage of control sample (cells stimulated by TNF without any compound).

The next assay has as its system MCF-7. Put plainly: Proliferation of MCF-7 cells (FIG. 1, CellTiter96). Type of assay: cell-based. The note with it: 10 μM dithiocarbamate + 0.1 μM 5-FU, or 0.1 μM 5-FU alone, 24-72 hours. The method, then: (§1) All primary cells and cell lines were commercially available. The transformed cell lines were grown in Dulbecco's Modified Eagle Media supplemented with 2 mM L-glutamine, 50 I.U. penicillin, 50 μg/ml streptomycin, nonessential amino acids and 10% heat-inactivated fetal bovine serum. HASM, HAEC and NHBE cells were cultured exactly as described by the commercial provider (Clonetics, San Diego, Calif.). All cell lines were grown at 37° C. in 5% CO2, with the media being changed every 48 hours.
(§2) For the experimental assays, cells were plated in 96-well plates and grown until ˜35% confluency was achieved. For the transformed cell lines, cells were plated at low density and grown for 72 hours prior to being stimulated, whereas the non-transformed cells were plated at a higher density and grown for 24 hours prior to being stimulated.
(§3) Cells were treated with dithiocarbamate (0.1-100 μM)±5FU (0.01-10 μM) and retreated after 48 hours when media was changed. Cell growth was assessed using the CellTiter96® assay system from Promega (Madison, Wis.). […]
(§4) Statistical significance was assessed using an ANOVA with the appropriate post-hoc analysis as well as Students t-tests. *=p<0.05 when compared to control-treated (DMSO) cells. #=p<0.05 when compared to 5FU-treated cells.

The subject of assay [1] is DLD-1 colorectal carcinoma cells. Description: Anti-proliferative effect on DLD-1 cells (CellTiter96). Type of assay: cell-based. The note with it: Homo sapiens, 5-FU alone 1 μM, read-out: proliferation, percent of control. Here is the method: as §1, §2
(§5) Cells were treated with dithiocarbamate (0.1-100 μM)±5FU (0.01-10 μM) and retreated after 48 hours when media was changed. Cell growth was assessed using the CellTiter96® assay system from Promega (Madison, Wis.). Each experimental condition was performed in triplicate or quadruplicate, with the number of experiments for each cell line being three.
as §4

Assay [2] concerns SNU-C5 colorectal carcinoma cells. Description: Anti-proliferative effect on SNU-C5 cells (CellTiter96). It is filed as cell-based. The note with it: 5-FU alone 1 μM, read-out: proliferation, percent of control. The method, then:
as §1, §2, §5, §4

The test system of another assay is T98G. Put plainly: Proliferation of T98G cells (FIG. 1, CellTiter96). The note with it: 10 μM dithiocarbamate + 0.1 μM 5-FU, or 0.1 μM 5-FU alone, 24-72 hours. Type of assay: cell-based. Here is the method:
as §1, §2, §3, §4

In the next assay the test system is Saos-2. Description: Proliferation of Saos-2 cells (FIG. 1, CellTiter96). Type of assay: cell-based. The note with it: 10 μM dithiocarbamate + 0.1 μM 5-FU, or 0.1 μM 5-FU alone, 24-72 hours. Here is the method: as §1, §2, §3, §4
A further assay has as its system HAEC. Description: Proliferation of non-transformed HAEC cells (FIG. 1, CellTiter96). It is filed as cell-based, Human. The note with it: 10 μM dithiocarbamate + 0.1 μM 5-FU, or 0.1 μM 5-FU alone, 24-72 hours. Here is the method: as §1, §2, §3, §4
Another assay has as its system H1299. Description: Proliferation of H1299 cells (FIG. 1, CellTiter96). It is filed as cell-based. The note with it: 10 μM dithiocarbamate + 0.1 μM 5-FU, or 0.1 μM 5-FU alone, 24-72 hours. The method, then: as §1, §2, §3, §4
In another assay the test system is HeLa. Description: Proliferation of HeLa cells (FIG. 1, CellTiter96). To be noted: 10 μM dithiocarbamate + 0.1 μM 5-FU, or 0.1 μM 5-FU alone, 24-72 hours. It is filed as cell-based. Here is the method: as §1, §2, §3, §4
A further assay relates to NHBE. Description: Proliferation of non-transformed NHBE cells (FIG. 1, CellTiter96). Type of assay: cell-based, Human. The note with it: 10 μM dithiocarbamate + 0.1 μM 5-FU, or 0.1 μM 5-FU alone, 24-72 hours. The method, then:
as §1, §2, §3, §4

The subject of the next assay is HASM. Description: Proliferation of non-transformed HASM cells (FIG. 1, CellTiter96). Type of assay: cell-based, Human. The note with it: 10 μM dithiocarbamate + 0.1 μM 5-FU, or 0.1 μM 5-FU alone, 24-72 hours. The method, then: as §1, §2, §3, §4

By pIC50 is commonly meant the IC50 on a negative log10 scale, so that one unit is a factor of ten. A word on the IC50: it is the point on the concentration scale where inhibition reaches its midpoint.

The structures appear in SMILES notation. pIC50: −log10 of the molar value. Where a name gives a salt, the structure may show the parent alone. Read-outs that look alike come from different tables or passages of the source.

As for `CCN(CC)CCNC(=S)SCCC(=O)OC` [3-(2-Diethylamino-ethylthiocarbamoylsulfanyl)-propionic acid methyl ester], the negative-log IC50 (pIC50) in the assay with VCAM-1 (Homo sapiens, Endothelial cell) was 4.43.
For the compound `CCOC(=O)NC(=S)SCCC(=O)OC` [3-(Ethoxycarbonylthiocarbamoylsulfanyl)propionic acid methyl ester], in the assay with VCAM-1 (Homo sapiens, Endothelial cell), the pIC50 is 4.30.
As to `COC(=O)CCSC(=S)NCc1ccco1` [3-(Furan-2-ylmethylthiocarbamoyl-sulfanyl)propionic acid methyl ester], in the assay on VCAM-1 (Homo sapiens, Endothelial cell), the IC50 was 6 µM.
On to `COC(=O)CCCSC(=S)NC[C@H]1CCCO1` [4-((R)-Tetrahydrofuran-2-ylmethylthiocarbamoyl-sulfanyl)butyric acid methyl ester], for which the pIC50 in the assay with VCAM-1 (Homo sapiens, Endothelial cell) was 5.52.
The same measure, in the same setting: then `COC(=O)CCCSC(=S)NC[C@@H]1CCCO1` [4-((S)-Tetrahydrofuran-2-ylmethylthiocarbamoyl-sulfanyl)butyric acid methyl ester], with 5.52; and `C=CCNC(=S)SCCCC(=O)OC` [4-(Allylthiocarbamoylsulfanyl)butyric acid methyl ester], with 4.52.
Same read-out and setting: the value for `COC(=O)CCCSC(=S)NCc1ccccc1` [4-(Benzylthiocarbamoylsulfanyl)butyric acid methyl ester] was 4.60; that for `COC(=O)CCCSC(=S)NCC1CCCCC1` [4-(Cyclohexylmethylthiocarbamoylsulfanyl)butyric acid methyl ester] was 4.40.
`CCOC(=O)CCCNC(=S)SCC1CCCO1` (stereo not shown) [4-(Tetrahydrofuran-2-ylmethylsulfanyllthio-carbonylamino)butyric acid ethyl ester]: in the assay with VCAM-1, the negative logarithm of the IC50 (pIC50) was 5.30.
Consider `COC(=O)CCCSC(=S)NCCC1CCCN1C` (stereo not shown) [4-[2-(1-Methylpyrrolidin-2-yl)ethylthiocarbamoyl-sulfanyl]butyric acid methyl ester], for which the pIC50 in the assay with VCAM-1 (Homo sapiens, Endothelial cell) was 4.74.
As to `COC(=O)CCCSC(=S)NCCc1cc2ccccc2[nH]1` [4-[2-(1H-Indol-2-yl)ethylthiocarbamoyl-sulfanyl]butyric acid methyl ester], the IC50 with VCAM-1 (Homo sapiens, Endothelial cell) was 5 µM.
As for `O=c1[nH]cc(F)c(=O)[nH]1` [5-FU, 5-fluorouracil], the inhibition of proliferation result in the assay with MCF-7, in the assay with T98G, with Saos-2, in the assay with HAEC, in the assay on H1299 and in the assay with HeLa was “no significant inhibition of proliferation” throughout. For the same compound, the inhibition of proliferation entry in the assay on NHBE and with HASM was “no significant inhibition of proliferation” each time. Moreover, the activity at 1 µM in assay [1] (24 HOURS) was 90.8%; in [1] (48 HOURS) it was 85.8%; in assay [1] (72 HOURS), 113%; in assay [2] (24 HOURS) it was 109%; in [2] (48 HOURS), 85.5%; in assay [2] (72 HOURS) it was 86.1%.
Regarding `S=C(NCc1ccc(Cl)cc1Cl)SCc1ccc(Cl)cc1Cl` [(2,4-dichlorobenzyl)dithiocarbamic acid 2,4-dichlorobenzyl ester], in the assay with VCAM-1 (Homo sapiens, Endothelial cell), the 50% inhibitory concentration (IC50) is 8 µM.
As to `NC(CSC(=S)NCc1ccccc1)C(=O)O` (stereo not shown) [(2-Amino-3-benzylthiocarbamoylsulfanyl)propionic acid], in the assay on VCAM-1, the pIC50 was 5.15.
On to `COc1cccc(CNC(=S)SCC(=O)C(C)(C)C)c1` [(3-Methoxybenzyl)dithiocarbamic acid 3,3-dimethyl-2-oxo-butyl ester], for which the negative-log IC50 (pIC50) in the assay with VCAM-1 (Homo sapiens, Endothelial cell) is 5.70.
Regarding `COCCCNC(=S)Sc1ccc(Cl)cc1` [(3-Methoxypropyl)dithiocarbamic acid 4-chlorophenyl ester], in the assay with VCAM-1 (Homo sapiens, Endothelial cell), the negative logarithm of the IC50 (pIC50) is 5.22.
Same read-out and setting: the value for `S=C(NCc1cccnc1)SCc1cc(Cl)sc1Cl` [(Pyridin-3-ylmethyl)dithiocarbamic acid 2,5-dichloro-thiophen-3-ylmethyl ester] was 5.82; that for `C=CCNC(=S)SCCN` [Allyldithiocarbamic acid 2-aminoethyl ester hydrochloride] was 4.92; that for `COCCNC(=S)SCCCC(=O)OC` [II: X=CH3O, Y′=C(O)OCH3, N=2, m=3, 4-(2-Methoxy-ethylthiocarbamoylsulfanyl)butyric acid methyl ester] was 4.96.
Regarding `CNC(=S)SCCC(=O)OC` [II: X=H, Y′=C(O)OCH3, N=1, m=2, 3-(Methylthiocarbamoylsulfanyl)propionic acid methyl ester], the pIC50 in the assay on VCAM-1 (Homo sapiens, Endothelial cell) was 4.85.
Still for that read-out and setting: then `COC(=O)CCSC(=S)NCC1CCCO1` (stereo not shown) [III: Y′=(CH2)2C(O)OCH3, 3-(Tetrahydrofuran-2-ylmethylthiocarbamoylsulfanyl)-propionic acid methyl ester], with 5.52.
On to `CC(=O)CCCSC(=S)NCC1CCCO1` (stereo not shown) [III: Y′=(CH2)3C(O)CH3, (Tetrahydrofuran-2-ylmethyl)dithiocarbamic acid 4-oxo-pentyl ester], for which the pIC50 in the assay on VCAM-1 (Homo sapiens, Endothelial cell) is 5.15.
On the same count and under the same terms, then `O=C(O)CCCSC(=S)NCC1CCCO1` (stereo not shown) [III: Y′=(CH2)3C(O)OH, 4-(Tetrahydrofuran-2-ylmethylthiocarbamoylsulfanyl)-butyric acid], with 5.15; and `N#CCCCSC(=S)NCC1CCCO1` (stereo not shown) [III: Y′=(CH2)3CN, (Tetrahydrofuran-2-ylmethyl)dithiocarbamic acid 3-cyano-propyl ester], with 5.52; and `COC(=O)CCCCCSC(=S)NCC1CCCO1` (stereo not shown) [III: Y′=(CH2)5C(O)OCH2CH3, 6-(Tetrahydrofuran-2-ylmethylthiocarbamoyl-sulfanyl)hexanoic acid methyl ester], with 4.96.
Regarding `COC(=O)CSC(=S)NCC1CCCO1` (stereo not shown) [III: Y′=CH2C(O)OCH3, (Tetrahydrofuran-2-ylmethylthiocarbamoylsulfanyl)acetic acid methyl ester], the pIC50 with VCAM-1 (Homo sapiens, Endothelial cell) was 5.00.
The same measure, in the same setting: then `CSC(=S)NCC1CCCO1` (stereo not shown) [III: Y′=CH3, (Tetrahydrofuran-2-ylmethyl)dithiocarbamic acid methyl ester], with 5.19.
With `CC(C)CNC(=S)SCc1ccc(Cl)cc1Cl` [Isobutyldithiocarbamic acid 2,4-dichlorobenzyl ester], the IC50 in the assay on VCAM-1 (Homo sapiens, Endothelial cell) came out at 32 µM.
With `CNC(=S)Sc1ccc(F)cc1F` [Methyldithiocarbamic acid 2,4-difluorophenyl ester], in the assay on VCAM-1 (Homo sapiens, Endothelial cell), the negative logarithm of the IC50 (pIC50) was 4.74.
On the same count and under the same terms, the value for `CCCCCCCCCCCCSC(=S)NCCc1ccccc1` [Phenethyldithiocarbamic acid dodecyl ester] was 4.52.

Source of the values: patent publication US6747061B2, “N-substituted dithiocarbamates for the treatment of biological disorders” (AtheroGenics, Inc., priority 2000, dated 2004).
